Measured values reported in patent US9458194B2, “Compounds useful in the treatment and/or care of the skin and their cosmetic or pharmaceutical compositions” (Lubrizol Advanced Materials, Inc., priority 2013, dated 2016).
Blank lines part the entries; values can stand above or below the substance they belong to.

Assays:
Type in all cases: cell-based
fibulin-5 = assay: Immunofluorescence of fibulin-5 protein expression in human dermal fibroblasts; conditions: for Increase in the expression of the protein fibulin-5 with regard to the negative control: 48 hours, HDFa; for Average increase of the expression of the proteins fibulin-5 and LOXL1: positive control, average for both proteins
Procedure: (§1) In this experiment the number of times that the expression of the proteins fibulin-5 and LOXL1 in human dermal fibroblasts is increased with regard to the basal levels in untreated cells (negative control) when treating the cells with 0.5 mg/ml of the product Ac-L-Asp-L-Val-L-Lys-L-Tyr-OH and it is compared with the effect of Interleukin-1β (IL-1β) at 20 ng/ml and TGF-β at 5 ng/ml (positive controls), which increase an average of 1.5 times and 2 times, respectively, the expression of these proteins, in the same conditions.
(§2) Adult human dermal fibroblasts were seeded (HDFa) (2.5×10^3 cells/well) in a 96-well transparent plate, treated with polylysine, and were incubated in complete medium 106 for 72 hours at 37° C. in an atmosphere with 5% CO2. After the incubation, the cells were treated with the different compounds in complete medium 106 for 48 hours at 37° C. in an atmosphere with 5% CO2. As positive controls of increase of the expression of the proteins fibulin-5 and LOXL1, 5 ng/ml of TGF-β and 20 ng/ml of IL-1β were used and as a negative control untreated cells were used, just with complete medium 106. The incubations and the treatments were carried out in quadruplicate for each condition. After the treatment, the levels of expression of both proteins were quantified relatively by using specific fluorescent antibodies, photographic recording by microscopy and subsequent quantification of the fluorescent signal using image processing software, the number of total cells by fluorescent staining of the nuclei (DAPI) and subsequent quantification in the same images. For the determination of the expression of the proteins fibulin-5 and LOXL1 the cells were washed with PBS 48 hours after the treatments and were fixed with paraformaldehyde. Next, duplicates of each treatment were used to mark separately the fibulin-5 and LOXL1 proteins. For each of the proteins a specific primary monoclonal antibody was used (Abcam). After the primary incubation, the cells were washed with PBS and the secondary marking was carried out with specific fluorescent polyclonal antibodies for each primary antibody. For fibulin-5 an Alexa Fluor® 594 (red) secondary antibody was used and for LOXL1 an Alexa Fluor® 488 (green) secondary antibody was used. 16 hours later all the samples were stained with DAPI (4′,6-Diamidino-2-Phenylindole), fluorescent marker for the staining of nuclei, and the photographic recording was carried out by fluorescence microscopy in a Leica microscope. 2-4 images were taken per condition and per protein and the fluorescent signals were quantified (IOD) corresponding to each protein and the nuclei by means of image analysis software. The fibulin-5 and LOXL1 signals were normalized according to the number of total nuclei for each image. 3 independent assays were carried out.

LOXL1 = assay: Immunofluorescence of LOXL1 protein expression in human dermal fibroblasts; conditions: 48 hours, HDFa
Procedure: as §1
as §2, with “For the determination of the expression of the proteins fibulin-5 and LOXL1 the cells were washed with PBS 48 hours after the treatments and were fixed with paraformaldehyde. Next, duplicates of each treatment were used to mark separately the fibulin-5 and LOXL1 proteins. For each of the proteins a specific primary monoclonal antibody was used (Abcam). After the primary incubation, the cells were washed with PBS and the secondary marking was carried out with specific fluorescent polyclonal antibodies for each primary antibody. For fibulin-5 an Alexa Fluor® 594 (red) secondary antibody was used and for LOXL1 an Alexa Fluor® 488 (green) secondary antibody was used.” left out, “The fibulin-5 and LOXL1 signals were normalized according to the number of total nuclei for each image. 3 independent assays were carried out.” left out

elastin = assay: Elastin synthesis in human dermal fibroblasts (Fastin Elastin Assay); conditions: positive control, 10 ng/mL, 48 hours, vs negative control
Procedure: Stimulation of elastin synthesis induced by Ac-L-Asp-L-Val-L-Lys-L-Tyr-OH was evaluated by means of a quantitative method of staining, Fastin Elastin Assay (Tebu-Bio). Human dermal fibroblasts were trypsinized and seeded at a density of 7×10^4 cells/well in 6-well plates. After 72 hours of incubation at 37° C., 5% CO2, with a humidified atmosphere, a new medium was added with 0.01 μg/mL Ac-L-Asp-L-Val-L-Lys-L-Tyr-OH. Untreated cells were used as negative controls and cells treated with TGF-1β (Peprotech) were used as positive controls. The cells were incubated for an additional 48 hours at 37° C., 5% CO2, with humidified atmosphere. Subsequently, the elastin was solubilized and extracted, for which the cells were washed twice with PBS (Sigma) and a solution was added to uncouple the cells (Cell Dissociation Solution, Sigma). The suspension of cells was transferred to centrifuge tubes, 1 M Oxalic Acid was added provided by the kit and they were incubated at 100° C. for 1 hour. Once the elastin became soluble, a calibration curve was prepared with the elastin provided with the kit. From that point, the samples and dilutions of the calibration curve were processed following the kit instructions to isolate and stain the elastin. Lastly, the dye was extracted and the absorbency reading was carried out at a wave length of 540 nm in a TECAN GENios spectrophotometric reader.

[1] = tested on: human fibulin-5 gene promoter; assay: Luminescence assay of human fibulin-5 gene promoter activation (Firefly luciferase); conditions: positive control, 10 ng/mL
Procedure: (§3) The effect of the compounds of the invention on the activity of the fibulin-5 and LOXL1 promoters was studied and compared to the levels of basal expression of the untreated cells (negative control) and with the effect of Interleukin-1β (IL-1β) in the same conditions.
(§4) Cells from an epithelial cell line doubly transfected with fibulin-5 and LOXL1 human promoters in which the luciferase gene is under the regulatory control of said promoters (4×10^4 cells/well) were seeded in a white plate and in a 96-well transparent plate, both treated with polylysine, and were incubated in Dulbecco's Modified Eagle Medium (DMEM-Glutamax™), with 10% of FBS, 1% Penicillin-Streptomycin (P/S), 1 mg/ml of Geneticin® (G418) and […] at 37° C. in at atmosphere with 5% CO2. After the incubation, the cells were incubated for 6 hours at 37° C. in at atmosphere with 5% CO2 with DMEM without serum. Then, this medium was removed and the cells were treated with different compounds at 0.1 mg/ml, 0.5 mg/ml, 1 mg/ml or 2 mg/mL in DMEM/1% FBS for 16-24 hours. As a positive control to activate the fibulin-5 and LOXL1 promoters 10 ng/ml of IL-1β were used and as a negative control untreated cells were used, just with DMEM/1% FBS. The incubations and treatments were carried out in parallel in the white plate and the transparent plate and in triplicate for each condition. After the treatment, the relative light units per second were determined (RLU/s) in the white plate by means of consecutive quantification of the activities of Firefly luciferase (fibulin-5 promoter) and Renilla luciferase (LOXL1 promoter), and the number of total cells/well in the transparent plate by means of staining with Crystal Violet (CV). To determine the Firefly and Renilla luciferase activities the Dual-Glo Luciferase Assay System kit by Promega was used. The cells were briefly lysed and the Firefly luciferase substrate was added. After incubating for 10 min at 25° C., the RLU/s were quantified by luminescence reader (Lumistar-BMG). Then the Firefly signal was extinguished and the Renilla luciferase substrate was added. After incubating for 5 min at 25° C., the RLU/s were quantified by the same luminescence reader. With regard to the determination of the total number of cells by Crystal Violet, the CV dyes the DNA of the cells and the quantity of dye taken by the cells can be measured in an absorbency reader at 630 nm (Multiskan Ascent). The color obtained is directly proportional to the total number of cells per well. The cells were briefly incubated with 0.05% CV plus 4% Formalin for 20 minutes and after several washes with Milli-Q water, the cells were left to dry for 1-2 hours and then 0.1 M of HCl was added for its immediate reading. The RLU/s of the luciferases corresponding to each promoter were normalized by the average of the total number of cells per condition. Three independent assays with 3 measurements per assay were carried out for Ac-L-Asp-L-Val-L-Lys-L-Tyr-OH at 0.1 mg/mL and 1 mg/mL. 1 assay with 3 measurements was carried out for the other compounds and concentrations.
(§5) The increase in the activity of the promoters with regard to the levels of expression of the negative control was determined.

[2] = tested on: human LOXL1 gene promoter; assay: Luminescence assay of human LOXL1 gene promoter activation (Renilla luciferase); conditions: positive control, 10 ng/mL
Procedure: as §3, §4, §5

Substance: TGF-β
Increase in the expression of the protein fibulin-5 with regard to the negative control (fibulin-5; 5 ng/mL): 147.72%
Average increase of the expression of the proteins fibulin-5 and LOXL1 (fibulin-5; 5 ng/ml): 2 times
Increase in the expression of the protein LOXL1 with regard to the negative control (LOXL1; 5 ng/mL): 45.93%

Substance: TGF-1β: TGF-1β (Peprotech), positive control in the elastin synthesis assay [reference compound]
INCREASE IN ELASTIN SYNTHESIS (elastin): 35.6%

Increase in the activity of the human promoter of the FIBULIN 5 gene with regard to the negative control [1]: 80.40%
Increase in the activity of the human promoter of the LOXL1 gene with regard to the negative control [2]: 156.26%
Substance: IL-1β: Interleukin-1β, positive control to activate the fibulin-5 and LOXL1 promoters and increase expression of the proteins [reference compound]
Increase in the expression of the protein fibulin-5 with regard to the negative control (fibulin-5; 20 ng/mL): 42.07%
Average increase of the expression of the proteins fibulin-5 and LOXL1 (fibulin-5; 20 ng/ml): 1.5 times
Increase in the expression of the protein LOXL1 with regard to the negative control (LOXL1; 20 ng/mL): 87.50%
